Laboratory results taken from patent publication US9962362B2, “Use of small molecule inhibitors targeting EYA tyrosine phosphatase” (CHILDREN'S HOSPITAL MEDICAL CENTER, priority 2012, dated 2018).
Each block holds one compound with its values, some of them ahead of it.

Experiments:
[1] = test system: developing zebrafish vasculature; experiment: Zebrafish model of angiogenesis; assay type: in vivo; details: for number of intersegmental vessels / defects in the developing vasculature: varying doses; for defects in the developing vasculature: exposure from 5.25 hpf, analysis at 24 hpf
Protocol: Embryos (FLK1-GFP trangenic) were maintained in fish water until the 50% epiboly stage (5.25 hpf) and were transferred into wells of 24-well plate containing the inhibitors in fish water. The analysis for vascular defects was performed after the 24 hpf stage, and embryos were imaged using a fluorescence microscope.
Transgenic fish expressing EGFP in endothelial cells (Tg(flk1:EGFP)) were used to facilitate visualization of the developing vasculature. In control experiments embryos were treated with 0.1% DMSO (vehicle). At the time of analyses (24 hpf) developing vessels normally migrated from the lateral plate mesoderm to the midline and formed the vascular cord, subsequently forming the dorsal aorta and the posterior cardinal vein and followed by the formation of intersegmental vessels at designated branch points (FIG. 6b).

[2] = test system: HUVECs; experiment: HUVEC tubulogenesis on matrigel; assay type: cell-based, human; details: 7.5 μM (highest concentration tested)
Protocol: The EYA inhibitors were also tested in tubulogenesis assays. The tubulogenesis assays were performed in 15-well micro-slide (ibidi LLC, Verona Wis.), using growth factor-reduced matrigel (BD Bioscience, Billerica, Mass.). The matrix was prepared by loading 10 μl of matrigel in each micro-slide well and allowing it to solidify for 30 minutes at 37° C. HUVECs were trypsinized and resuspended at 100,000 cell/ml in EBM+2.5% FBS. 50 μl (5,000 cell) were loaded on top of the solidified matrigel and the preparation was incubated for 20 hours at 37° C. in a humidified incubator in a 5% CO2 atmosphere. Bright field images were taken using an inverted microscope at 2.5× magnification, which allowed imaging of the whole well in two pictures that were later merged in Photoshop. Tubular structures were traced and counted using NeuroJ (NIH, USA). In experiments with inhibitor, the inhibitor was added to the cell suspension before loading. Each sample was loaded in triplicate, and each treatment was repeated for reproducibility.

[3] = target: PTP1B (Homo sapiens (Human), UniProt P18031); experiment: PTP1B-catalyzed pNPP hydrolysis; assay type: biochemical; details: EYA3 vs PTP1B
Chain of PTP1B (P18031 whole entry, species assumed, the tested form may be a part): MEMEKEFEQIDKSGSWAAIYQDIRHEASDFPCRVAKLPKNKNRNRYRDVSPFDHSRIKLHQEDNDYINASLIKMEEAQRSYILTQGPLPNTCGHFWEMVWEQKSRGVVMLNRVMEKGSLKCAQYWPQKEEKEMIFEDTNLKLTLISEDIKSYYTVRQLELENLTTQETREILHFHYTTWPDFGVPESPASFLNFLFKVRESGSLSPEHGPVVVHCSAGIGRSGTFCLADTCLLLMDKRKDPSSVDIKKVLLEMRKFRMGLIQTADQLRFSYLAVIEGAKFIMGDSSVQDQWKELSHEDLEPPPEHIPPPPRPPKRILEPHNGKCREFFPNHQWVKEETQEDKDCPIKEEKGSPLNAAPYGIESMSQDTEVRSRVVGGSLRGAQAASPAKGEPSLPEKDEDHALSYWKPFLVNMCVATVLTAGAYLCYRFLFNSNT
Protocol: The catalytic domain of human Eya2 (“hEYA2(ED)”) was similarly sub-cloned as a polyhistidine fusion construct in the vector pDEST-527. Fusion protein was purified by NiNTA chromatography and followed by size-exclusion chromatography over a Superdex-75 column. The relative purity of protein samples was determined using SDS-PAGE. PTP1B was purified as described previously (Rayapureddi, J. P. et al. Nature 426, 295-298 (2003), incorporated by reference in its entirety).
(§1) Screening Methods. An inhibitory assay was conducted using the previously described p-nitrophenylphosphate assay (Rayapureddi, J. P. et al. Nature 426, 295-298 (2003)). Briefly, ED was incubated in a reaction mixture containing 20 mM MES pH 6, 2 mM MgCl2, 125 μM inhibitor, 3.4 mM para-nitrophenol phosphate (pNPP) and 0.01 μg/μL enzyme.
PTP1B is a classical Cys-based tyrosine phosphatase.

[4] = test system: mouse aortic rings; experiment: Aortic ring sprouting angiogenesis assay; assay type: cell-based; details: 5 μM, 10 days, VEGF-stimulated
Protocol: Endothelial cell migration can also be studied ex vivo using the aortic ring assay in which sprouting angiogenesis is monitored by the formation of vascular sprouts outside the wall of mouse aortic rings incubated in collagen matrix and stimulated by VEGF (Gerhardt, H., et al. EXS, 3-15 (2005), hereby incorporated by reference in its entirety). Briefly, mice were obtained from the Cincinnati Children's veterinary service and handled according to the institutional animal care and use protocol. […] Mice were 4 to 6 weeks old female C57BL16, and aortic ring explants were cultured at 37° C. in a humidified incubator under a 5% CO2 atmosphere.
Each inhibitor was serially diluted (between 0.25 mM and 7.5 mM) to stocks of 1000× the working concentrations in sterile 100% DMSO in order to achieve an equal final concentration of DMSO (0.1% v/v) in all culture conditions. For the experiments, the compounds were diluted in EBM containing 2.5% FBS, penicillin/streptomycin and 20 ng/ml VEGF165 (R&D Systems, Minneapolis, Minn.). Each compound was applied from the first day of culture over a 10-day period with medium change every two days. In all experiments, the vehicle (DMSO, 0.1%) was used as control. The sprouting density was derived from counting the number of branches per ring, and the extent of angiogenic sprouting was estimated by measuring the total surface area covered by the vessels as illustrated in FIG. 7.

[5] = test system: retinal neovascularization; experiment: Mouse model of oxygen-induced retinopathy; assay type: in vivo; details: 100 or 50 pmoles injected at P12, analyzed at P16
From the text: The mouse model of oxygen-induced retinopathy mimics the retinopathy characteristic of proliferative retiopathy conditions such as retinopathy of prematurity and diabetic retinopathy. […] The resulting retinal hypoxia after day 12, when pups were brought back to 20% O2, induced excessive hypoxia-driven angiogenesis. A characteristic large avascular area at the center of the retina and excessive regrowth of superficial vessels (pre-retinal neovascular tufts) in the mid-peripheral region was observed. […] In contrast, inhibition of either Vegf or Vegfr2 in OIR experiments suppresses both neovascular tuft formation and revascularization.

[6] = test system: HUVECs; experiment: HUVEC proliferation (MTT); assay type: cell-based, human; details: 5 μM, 24 hours
[7] = test system: MCF10A-EYA2 cells; experiment: Transwell migration of MCF10A-EYA2 cells; assay type: cell-based; details: for migration of MCF10A(EYA2) cells: 7.5 μM
From the text: The tyrosine phosphatase activity of Eya3 and Eya2 promotes single cell motility in breast cancer cells (Pandey, R. N. et al. Oncogene (2010) 29:3715-3722, incorporated by reference in its entirety). EYA2 is over-expressed in breast cancers and is associated with increased metastasis and a poorer outcome (Farabaugh, et al. Oncogene (2011) 259). […] Overexpression of EYA2, but not the tyrosine-phosphatase dead mutant, promoted cell motility (FIG. 2a). […] This effect was dose-dependent (FIG. 2d) and compound (1a) was able to reduce cell motility by over 50% at the lowest concentration (1 μM) tested.
In order to determine whether EYA3 knock down would affect cell migration, a modified Boyden chamber assay was used to measure HUVEC migration. Briefly, human umbilical vein endothelial cells (HUVECs) were purchased from Lonza (Walkersville, Md.) and maintained in the endothelial cell growth medium (PromoCell, Heidelberg, Germany), under a 5% CO2 atmosphere. MCF10A cells from ATCC were stably transfected with either pcDNA 3.2N5-DEST (vector control), V5-EYA2 or V5-EYA2(D250N). Transwell migration experiments were performed as previously described (Pandey, R. N. et al. Oncogene 29, 3715-3722, (2010)).

[8] = test system: retinal vasculature; experiment: Post-natal retinal angiogenesis in mice; assay type: in vivo, mouse; details: 100 μM injected into eyes at P0.5 and P3, P5 retinas
Protocol: Next, retinal blood vessel density and angiogenic extension were studied using induced deletion of Eya3 in mice by PDGFB-icreERT2 starting at the day of birth. Isolectin labeled retinal blood vessels at postnatal day 5 in control Eya3fl/fl (FIGS. 8b and 8d) and experimental Eya3fl/fl; PDGFB-icreERT2 (FIGS. […]) mice. FIGS. 8d and 8e are magnified images of the regions indicated in 8b and 8c, respectively.
Next, treatment with an inhibitor of Eya3 was performed to test the effect on post-natal retinal angiogenesis. Briefly, 100 μM of compound 1a was injected into the eyes of post-natal mice, at P0.5 and P3. P5 retinas were then analyzed for effects on the retinal vasculature.

[9] = test system: A673 (Ewings sarcoma) cells; experiment: Mouse xenograft model of Ewings sarcoma; assay type: in vivo; details: A673 xenograft in nude mice
Protocol: The affect of EYA inhibitors on a mouse xenograft model of Ewings sarcoma was tested. 5×10^6 A673 (Ewings sarcoma) cells in 0.1 ml sterile matrigel were injected subcutaneously into the dorsal flank region of nude mice. Approximately 5 days after injection, the tumors were about 100-300 mm^3. […] The dose for intra-peritoneal injections was 25 mg/kg/day. The tumor size was monitored every other day. Animals were sacrificed after 2 weeks, or when tumor volume approached 10% of animal weight.

[10] = target: EYA3-SIX2 interaction (Homo sapiens (Human), UniProt Q99504); experiment: His-SIX2 pull-down of EYA3 on Ni-NTA; assay type: binding; details: 50 μM, 15 minutes
Chain of EYA3-SIX2 interaction (Q99504 whole entry, looked up, stated change not applied): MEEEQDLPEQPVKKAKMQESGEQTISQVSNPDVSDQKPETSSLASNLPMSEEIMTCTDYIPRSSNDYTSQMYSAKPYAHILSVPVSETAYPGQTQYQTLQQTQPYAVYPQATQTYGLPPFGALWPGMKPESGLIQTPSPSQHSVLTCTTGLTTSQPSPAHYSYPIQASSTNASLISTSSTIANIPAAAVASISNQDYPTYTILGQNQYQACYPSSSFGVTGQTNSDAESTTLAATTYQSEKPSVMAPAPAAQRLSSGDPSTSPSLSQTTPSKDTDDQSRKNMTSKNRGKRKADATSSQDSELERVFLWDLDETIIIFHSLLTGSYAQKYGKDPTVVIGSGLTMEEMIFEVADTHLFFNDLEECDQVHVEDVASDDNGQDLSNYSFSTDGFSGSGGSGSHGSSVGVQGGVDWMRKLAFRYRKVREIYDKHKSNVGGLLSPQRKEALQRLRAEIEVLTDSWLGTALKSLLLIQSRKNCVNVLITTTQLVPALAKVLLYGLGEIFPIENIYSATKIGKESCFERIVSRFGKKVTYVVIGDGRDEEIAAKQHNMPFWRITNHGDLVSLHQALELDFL
Chain of EYA3-SIX2 interaction (Q9NPC8 whole entry partner, looked up): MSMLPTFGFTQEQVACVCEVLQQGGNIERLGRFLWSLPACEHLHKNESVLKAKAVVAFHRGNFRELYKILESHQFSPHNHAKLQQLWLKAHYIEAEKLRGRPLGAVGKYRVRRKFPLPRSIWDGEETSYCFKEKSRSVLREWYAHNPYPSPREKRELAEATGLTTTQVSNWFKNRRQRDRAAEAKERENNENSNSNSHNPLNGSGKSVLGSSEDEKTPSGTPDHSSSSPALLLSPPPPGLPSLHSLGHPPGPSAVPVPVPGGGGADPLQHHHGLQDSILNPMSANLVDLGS
From the text: Each point represents the mean and standard deviation of two independent readings. (C) Plots of Vmax and Km as a function of inhibitor concentration. […] The mixture was loaded on a Ni-NTA column. Beads were washed with 3 column volumes of load buffer (last washes, lanes 2 and 6). Proteins retained on the beads are shown in lanes 3 and 7. Lanes 4 and 8 are molecular weight markers.
One function of the catalytic domain of the EYAs is to mediate its interaction with the SIX proteins. This complex then translocates to the nucleus where the SIX-EYA complex can activate transcription.

[11] = target: full-length human recombinant EYA3 (Homo sapiens (Human), UniProt Q99504); experiment: pNPP phosphatase assay, full-length EYA3; assay type: biochemical
Chain of full-length human recombinant EYA3 (Q99504 127-573): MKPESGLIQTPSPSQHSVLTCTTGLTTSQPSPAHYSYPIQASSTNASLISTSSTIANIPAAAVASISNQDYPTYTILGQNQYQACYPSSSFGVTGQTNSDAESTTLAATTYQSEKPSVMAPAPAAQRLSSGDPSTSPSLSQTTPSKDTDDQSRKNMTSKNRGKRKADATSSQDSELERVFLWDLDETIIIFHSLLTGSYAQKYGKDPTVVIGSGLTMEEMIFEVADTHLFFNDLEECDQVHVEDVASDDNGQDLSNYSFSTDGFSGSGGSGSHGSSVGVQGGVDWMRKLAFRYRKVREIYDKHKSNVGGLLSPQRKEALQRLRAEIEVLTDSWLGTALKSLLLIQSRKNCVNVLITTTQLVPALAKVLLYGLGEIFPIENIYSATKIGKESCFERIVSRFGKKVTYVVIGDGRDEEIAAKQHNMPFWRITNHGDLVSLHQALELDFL
From the text: The catalytic domain of mouse Eya3 (“ED”, comprising residues 223-510 of Eya3) was purified as described by Rayapureddi, J. P. et al. (FEBS Lett 580, 3853-3859 (2006), incorporated by reference in its entirety). For full-length Eya3 (“hEYA3”), human Eya3 isoform 2 (representing the major species identified in human cell lines by mass spectrometry, expressed as residues 127-573 of NM_001990, isoform 1) was sub-cloned into pDEST565 to express a poly-histidine-Glutathione-S-transferase (His-GST) tagged fusion protein with a TVMV protease site. The protein was purified by glutathione-S-transferase affinity chromatography followed by TVMV cleavage, Ni-NTA chromatography, and finally size exclusion chromatography.
as §1
The compounds were then tested using full-length human recombinant, purified EYA3 and pNPP as a substrate. Compounds were dissolved in DMSO and diluted as needed. […] Reactions were incubated at 30° C. for 30 minutes and quenched with 100 mM EDTA pH 10. IC50 values were then calculated directly from regression curves using PRISM software. […]

greater activity towards EYA3 than PTP1B [3]: 4.7-6.5 fold
Structure (SMILES): CCCCc1oc2ccccc2c1C(=O)c1ccc(O)cc1 [Compound 1b]
number of intersegmental vessels [1]: reduced the number of intersegmental vessels, but were less potent
defects in the developing vasculature [1]: Dose-dependent defects in the developing vasculature
inhibition of tubulogenesis [2]: effective
aortic ring sprouting [4]: shorter sprouts and significantly lower microvascular density
formation of neovascular tufts [5]: Significant reduction in the formation of neovascular tufts
HUVEC cell proliferation [6]: no effect on cell proliferation
migration of MCF10A(EYA2) cells [7]: significantly inhibited cell migration

greater activity towards EYA3 than PTP1B [3]: over 100 fold
Structure (SMILES): CCc1oc2ccccc2c1C(=O)c1ccc(O)cc1 [Compound 1a]
number of intersegmental vessels [1]: reduced the number of intersegmental vessels, but were less potent
defects in the developing vasculature [1]: Dose-dependent defects in the developing vasculature
retinal vascular branch points [8]: quantifiable decrease in branch points
aortic ring sprouting [4]: shorter sprouts and significantly lower microvascular density
formation of neovascular tufts [5]: Significant reduction in the formation of neovascular tufts
HUVEC cell proliferation [6]: no effect on cell proliferation
reduction of cell motility ([7]; 1 μM (lowest concentration tested)): over 50%
migration of MCF10A(EYA2) cells [7]: significantly inhibited cell migration

EYA3-SIX2 interaction in presence of inhibitor [10]: unaffected
greater activity towards EYA3 than PTP1B [3]: 4.7-6.5 fold
mode of inhibition of EYA3 (substrate titration) ([11]; increasing substrate concentration): not a competitive inhibitor
Structure (SMILES): CCc1oc2ccccc2c1C(=O)c1cc(Br)c(O)c(Br)c1 [Compound 1, Benzbromarone, reference compound]
tumor growth [9]: able to reduce tumor growth
intersegmental vessels ([1]; 0.25 μM (lowest dose tested)): significant reduction of intersegmental vessels
defects in the developing vasculature [1]: Dose-dependent defects in the developing vasculature
inhibition of tubulogenesis [2]: effective
aortic ring sprouting [4]: shorter sprouts and significantly lower microvascular density
formation of neovascular tufts [5]: Significant reduction in the formation of neovascular tufts
HUVEC cell proliferation [6]: no effect on cell proliferation
Vmax and Km as a function of inhibitor concentration [11]: both values decrease with increased inhibitor concentration
migration of MCF10A(EYA2) cells [7]: significantly inhibited cell migration
